Test results from US4988687A, “Cephalosporin derivatives, and antibacterial agents” (priority 1986, dated 1991).
≈ marks a conversion by molar mass, not a printed value. Where two headings read alike, the source gives them in different places.

Legend:
E. coli GN5482 = assay: agar plate dilution method, MIC against E. coli GN5482; assay type: cell-based; conditions: Escherichia coli; E. coli GN5482 (lactamase-producing strain); 10^6 CFU/ml, 37° C., 16 hours; read-out: Minimum Inhibitory Concentration (MIC)
Experimental: (§1) The in vitro antibacterial activities of the compounds of the present invention against various microorganisms, were measured by the following agar plate dilution method. One platinum loopfull of each test microorganism incubated overnight in Mueller Hinton broth, was inoculated to Mueller Hinton agar (inoculum size: 10^6 CFU/ml) Such culture media containing various antibiotics in various concentrations were prepared After incubation at 37° C. for 16 hours, the minimum inhibitory concentrations (MIC: μg/ml) were measured. As comparative compounds, cefotaxime, oeftazidime and the compounds disclosed in Example 2 of Japanese Unexamined Patent Publication No. 215690/1985 e.g. sodium 7-[2-(2-aminothiazol-4-yl)-2-ethoxyiminoacetamido]-3-(1-carboxylatemethylpyridinio-4-yl)thiomethyl-3-cephem-4-carboxylate (hereinafter referred to simply as "Reference Example A") were employed.

C. freundii GN346/16 = assay: agar plate dilution method, MIC against C. freundii GN346/16; assay type: cell-based; conditions: Citrobacter freundii; C. freundii GN346/16; 10^6 CFU/ml, 37° C., 16 hours; read-out: Minimum Inhibitory Concentration (MIC)
Experimental: as §1

E. coli NIHJ JC2 = assay: agar plate dilution method, MIC against E. coli NIHJ JC2; assay type: cell-based; conditions: Escherichia coli, read-out: Minimum Inhibitory Concentration (MIC)
Experimental: as §1

E. cloacae Nek 39 = assay: agar plate dilution method, MIC against E. cloacae Nek 39; assay type: cell-based; conditions: Enterobacter cloacae, NEK39; E. cloacae Nek 39 (lactamase-producing strain); 10^6 CFU/ml, 37° C., 16 hours; read-out: Minimum Inhibitory Concentration (MIC)
Experimental: as §1

Ps. aeruginosa AKR17 = assay: agar plate dilution method, MIC against Ps. aeruginosa AKR17; assay type: cell-based; conditions: Pseudomonas aeruginosa; Ps. aeruginosa AKR17; 10^6 CFU/ml, 37° C., 16 hours; read-out: Minimum Inhibitory Concentration (MIC)
Experimental: as §1

Ps. aeruginosa IFO3445 = assay: agar plate dilution method, MIC against Ps. aeruginosa IFO3445; assay type: cell-based; conditions: Pseudomonas aeruginosa, read-out: Minimum Inhibitory Concentration (MIC)
Experimental: as §1

S. marcescens IAM 1184 = assay: agar plate dilution method, MIC against S. marcescens IAM 1184; assay type: cell-based; conditions: Serratia marcescens, IAM1184, 16 h, read-out: Minimum Inhibitory Concentration (MIC)
Experimental: as §1

P. vulgaris No. 33 = assay: agar plate dilution method, MIC against P. vulgaris No. 33; assay type: cell-based; conditions: Proteus vulgaris, read-out: Minimum Inhibitory Concentration (MIC)
Experimental: as §1

C. freundii GN346 = assay: agar plate dilution method, MIC against C. freundii GN346; assay type: cell-based; conditions: Citrobacter freundii; C. freundii GN346 (lactamase-producing strain); 10^6 CFU/ml, 37° C., 16 hours; read-out: Minimum Inhibitory Concentration (MIC)
Experimental: as §1

S. aureus JS1 = assay: agar plate dilution method, MIC against S. aureus JS1; assay type: cell-based; conditions: Staphylococcus aureus; S. aureus JS1 (methicilline resistant; lactamase-producing strain); 10^6 CFU/ml, 37° C., 16 hours; read-out: Minimum Inhibitory Concentration (MIC)
Experimental: as §1

Ps. aeruginosa AK 109 = assay: agar plate dilution method, MIC against Ps. aeruginosa AK 109; assay type: cell-based; conditions: Pseudomonas aeruginosa, read-out: Minimum Inhibitory Concentration (MIC)
Experimental: as §1

P. vulgaris HX-19 = assay: agar plate dilution method, MIC against P. vulgaris HX-19; assay type: cell-based; conditions: Proteus vulgaris, HX19, 16 h, read-out: Minimum Inhibitory Concentration (MIC)
Experimental: as §1

E. coli CSH(RE45) = assay: agar plate dilution method, MIC against E. coli CSH(RE45); assay type: cell-based; conditions: Escherichia coli, 16 h, read-out: Minimum Inhibitory Concentration (MIC)
Experimental: as §1

Ps. maltophilia GN 12873 = assay: agar plate dilution method, MIC against Ps. maltophilia GN 12873; assay type: cell-based, Pseudomonas maltophilia; conditions: Stenotrophomonas maltophilia, GN12873; Ps. maltophilia GN 12873 (lactamase-producing strain); 10^6 CFU/ml, 37° C., 16 hours; read-out: Minimum Inhibitory Concentration (MIC)
Experimental: as §1

S. marcescens No. 16-2 = assay: agar plate dilution method, MIC against S. marcescens No. 16-2; assay type: cell-based; conditions: Serratia marcescens, NO.162, 16 h, read-out: Minimum Inhibitory Concentration (MIC)
Experimental: as §1

E. cloacae 963 = assay: agar plate dilution method, MIC against E. cloacae 963; assay type: cell-based; conditions: read-out: Minimum Inhibitory Concentration (MIC)
Experimental: as §1

A. calcoaceticus No. 4 = assay: agar plate dilution method, MIC against A. calcoaceticus No. 4; assay type: cell-based; conditions: Acinetobacter calcoaceticus; A. calcoaceticus No. 4; 10^6 CFU/ml, 37° C., 16 hours; read-out: Minimum Inhibitory Concentration (MIC)
Experimental: as §1

M. morganii GN5407 = assay: agar plate dilution method, MIC against M. morganii GN5407; assay type: cell-based; conditions: Morganella morganii; M. morganii GN5407 (lactamase-producing strain); 10^6 CFU/ml, 37° C., 16 hours; read-out: Minimum Inhibitory Concentration (MIC)
Experimental: as §1

M. luteus ATCC9341 = assay: agar plate dilution method, MIC against M. luteus ATCC9341; assay type: cell-based; conditions: Micrococcus luteus, ATCC9341, 16 h, read-out: Minimum Inhibitory Concentration (MIC)
Experimental: as §1

K. pneumoniae No. 42 = assay: agar plate dilution method, MIC against K. pneumoniae No. 42; assay type: cell-based; conditions: Klebsiella pneumoniae; K. pneumoniae No. 42 (lactamase-producing strain); 10^6 CFU/ml, 37° C., 16 hours; read-out: Minimum Inhibitory Concentration (MIC)
Experimental: as §1

S. aureus BB5703 = assay: agar plate dilution method, MIC against S. aureus BB5703; assay type: cell-based; conditions: Staphylococcus aureus, read-out: Minimum Inhibitory Concentration (MIC)
Experimental: as §1

K. oxytoca GN10650 = assay: agar plate dilution method, MIC against K. oxytoca GN10650; assay type: cell-based; conditions: Klebsiella oxytoca; K. oxytoca GN10650 (lactamase-producing strain); 10^6 CFU/ml, 37° C., 16 hours; read-out: Minimum Inhibitory Concentration (MIC)
Experimental: as §1

S. aureus 209P NIHJ-JC1 = assay: agar plate dilution method, MIC against S. aureus 209P NIHJ-JC1; assay type: cell-based; conditions: Staphylococcus aureus, read-out: Minimum Inhibitory Concentration (MIC)
Experimental: as §1

E. coli CSH2 (RK1) = assay: agar plate dilution method, MIC against E. coli CSH2 (RK1); assay type: cell-based; conditions: Escherichia coli, 16 h, read-out: Minimum Inhibitory Concentration (MIC)
Experimental: as §1

K. pneumoniae PCI-602 = assay: agar plate dilution method, MIC against K. pneumoniae PCI-602; assay type: cell-based; conditions: Klebsiella pneumoniae, read-out: Minimum Inhibitory Concentration (MIC)
Experimental: as §1

S. epidermidis IAM12012 = assay: agar plate dilution method, MIC against S. epidermidis IAM12012; assay type: cell-based; conditions: Staphylococcus epidermidis, read-out: Minimum Inhibitory Concentration (MIC)
Experimental: as §1

Ps. cepacia 23 = assay: agar plate dilution method, MIC against Ps. cepacia 23; assay type: cell-based, Pseudomonas cepacia; conditions: Burkholderia cepacia, 23, 16 h, read-out: Minimum Inhibitory Concentration (MIC)
Experimental: as §1

| Compound | MIC (E. coli GN5482) | MIC (C. freundii GN346/16) | MIC (E. cloacae Nek 39) | MIC (Ps. aeruginosa AKR17) | MIC (S. marcescens IAM 1184) | MIC (C. freundii GN346) | MIC (S. aureus JS1) | MIC (P. vulgaris HX-19) | MIC (E. coli CSH(RE45)) | MIC (Ps. maltophilia GN 12873) | MIC (S. marcescens No. 16-2) | MIC (A. calcoaceticus No. 4) | MIC (M. morganii GN5407) | MIC (M. luteus ATCC9341) | MIC (K. pneumoniae No. 42) | MIC (K. oxytoca GN10650) | MIC (E. coli CSH2 (RK1)) | MIC (Ps. cepacia 23) | further results |
| --- | --- | --- | --- | --- | --- | --- | --- | --- | --- | --- | --- | --- | --- | --- | --- | --- | --- | --- | --- |
| C=C(O/N=C(\C(=O)NC1C(=O)N2C(C(=O)[O-])=C(CSc3cc[n+](CC(=O)O)cc3)CSC12)c1csc(N)n1)C(=O)O (stereo not drawn) [Example 1, 7-[2-(2-aminothiazol-4-yl)-2-(1-carboxy-1-vinyloxyimino)acetamido]-3-(1-carboxymethylpyridinio-4-yl)thiomethyl-4-carboxylate (syn-isomer)] | 0.2 µg/mL (≈ 0.322 µM) | 0.1 µg/mL (≈ 0.161 µM) | 0.78 µg/mL (≈ 1.26 µM) | > 100 µg/mL | < 0.006 µg/mL | 25 µg/mL (≈ 40.3 µM) | 50 µg/mL (≈ 80.6 µM) | < 0.006 µg/mL | 0.1 µg/mL (≈ 0.161 µM) | > 100 µg/mL | 1.56 µg/mL (≈ 2.51 µM) | 50 µg/mL (≈ 80.6 µM) | 0.0125 µg/mL (≈ 0.0201 µM) | 1.56 µg/mL (≈ 2.51 µM) | 0.2 µg/mL (≈ 0.322 µM) | 0.2 µg/mL (≈ 0.322 µM) | 0.05 µg/mL (≈ 0.0806 µM) | 1.56 µg/mL (≈ 2.51 µM) | MIC (E. coli NIHJ JC2; NIHJJC2, E. coli NIHJ JC2, 10^6 CFU/ml, 37° C., 16 hours): 0.1 µg/mL (≈ 0.161 µM); MIC (Ps. aeruginosa IFO3445; IFO3445, 16 h): 1.56 µg/mL (≈ 2.51 µM); MIC (P. vulgaris No. 33; NO.33, 16 h): 0.0125 µg/mL (≈ 0.0201 µM); MIC (Ps. aeruginosa AK 109; AK109, 16 h): 3.12 µg/mL (≈ 5.03 µM); MIC (E. cloacae 963; Enterobacter cloacae, E. cloacae 963, 10^6 CFU/ml, 37° C., 16 hours): 0.1 µg/mL (≈ 0.161 µM); MIC (S. aureus BB5703; S. aureus BB5703, 10^6 CFU/ml, 37° C., 16 hours): 25 µg/mL (≈ 40.3 µM); MIC (S. aureus 209P NIHJ-JC1; 16 h): 3.12 µg/mL (≈ 5.03 µM); MIC (K. pneumoniae PCI-602; PCI602, 16 h): < 0.006 µg/mL; MIC (S. epidermidis IAM12012; IAM12012, 16 h): 1.56 µg/mL (≈ 2.51 µM) |
| Nc1nc(/C(=N/OCc2ccccc2)C(=O)NC2C(=O)N3C(C(=O)[O-])=C(CSc4cc[n+](CC(=O)O)cc4)CSC23)cs1 (stereo not drawn) [Example 2, monosodium 7-[2-(2-aminithiazol-4-yl)-2-benzyloxyiminoacetamide]-3-(1-caboxylatemethylpyridinio-4-yl)thiomethyl-3-cephem-4-carboxylate (syn-isomer)] | 0.78 µg/mL | 0.78 µg/mL | 6.25 µg/mL | > 100 µg/mL | 1.56 µg/mL | 25 µg/mL | 50 µg/mL | < 0.006 µg/mL | 0.2 µg/mL | > 100 µg/mL | 12.5 µg/mL | 25 µg/mL | 1.56 µg/mL | 0.025 µg/mL | 1.56 µg/mL | 12.5 µg/mL | 0.2 µg/mL | 12.5 µg/mL | MIC (E. coli NIHJ JC2; NIHJJC2, 16 h): 1.56 µg/mL; MIC (Ps. aeruginosa IFO3445; Ps. aeruginosa IFO3445, 10^6 CFU/ml, 37° C., 16 hours): 25 µg/mL; MIC (P. vulgaris No. 33; P. vulgaris No. 33 (lactamase-producing strain), 10^6 CFU/ml, 37° C., 16 hours): 1.56 µg/mL; MIC (Ps. aeruginosa AK 109; AK109, Ps. aeruginosa AK 109, 10^6 CFU/ml, 37° C., 16 hours): 25 µg/mL; MIC (E. cloacae 963; Enterobacter cloacae, 963, 16 h): 1.56 µg/mL; MIC (S. aureus BB5703; BB5703, 16 h): 1.56 µg/mL; MIC (S. aureus 209P NIHJ-JC1; S. aureus 209P NIHJ-JC1, 10^6 CFU/ml, Mueller Hinton agar, 37° C., 16 hours): 0.39 µg/mL; MIC (K. pneumoniae PCI-602; PCI602, K. pneumoniae PCI-602, 10^6 CFU/ml, 37° C., 16 hours): 0.0125 µg/mL; MIC (S. epidermidis IAM12012; S. epidermidis IAM12012, 10^6 CFU/ml, 37° C., 16 hours): 0.2 µg/mL |
